Reference: patent US4318864A, “Process for making s-phenenyltris(sulfonylimino)tri-benzene mono- and di-sulfonic acids and salts” (American Cyanamid Company, priority 1980, dated 1982)
Structures can show the parent of a compound that is named as a salt. Where two headings read alike, the source gives them in different places.

How the values were obtained:
shunt pathway = test: Test Code 036 (C-Shunt inhibitor), lysis of human erythrocytes via cobra venom factor activated shunt pathway; assay type: biochemical; design: key: N = Negative; settings: serial dilution assay, twofold dilutions
activated human C1 = activated human C1 (Homo sapiens, UniProt P09871); test: Test Code 026 (C1 inhibitor); assay type: biochemical; settings: serial dilution assay, twofold dilutions; higher well number indicates higher activity
[1] = test system: late components of human complement (C3-C9); test: Test Code 035 (C3-C9 inhibitor), lysis of EAC 142; assay type: biochemical; design: key: N = Negative; settings: serial dilution assay, twofold dilutions
[2] = test system: complement activity in serum; test: Guinea Pig Intraperitoneal Test (GPIP); assay type: in vivo; settings: Cavia porcellus, ip, 200 mg./kg. i.p.

Cl 026 Wells (activated human C1): +8 Wells
SMILES: O=S(=O)(O)c1cc(NS(=O)(=O)c2cc(S(=O)(=O)Nc3cc(S(=O)(=O)O)cc(S(=O)(=O)O)c3)cc(S(=O)(=O)Nc3cc(S(=O)(=O)O)cc(S(=O)(=O)O)c3)c2)cc(S(=O)(=O)O)c1 [5,5',5"-[s-Phenenyltris(sulfonylimino)]tri-m-benzenedisulfonic acid, hexasodium salt]
Shunt Inhibition 036 Wells (shunt pathway): N | C-Late 035 Wells [1]: N | inhibition at 200 mg/kg ([2]; 0.5 h, 30 min after injection, read-out: In Vivo Activity (Guinea pig) % Inhibition Intraperitoneal, 30 min): -75% | inhibition at 200 mg/kg ([2]; 1 h, 60 min after injection, read-out: In Vivo Activity (Guinea pig) % Inhibition Intraperitoneal, 60 min): -75% | inhibition at 200 mg/kg ([2]; 2 h, 120 min after injection, read-out: In Vivo Activity (Guinea pig) % Inhibition Intraperitoneal, 120 min): -81%
